Measured values from patent US20190167647A1, “PHARMACEUTICAL COMPOSITION FOR STROKE TREATMENT BASED ON AMPK INHIBITION” (INDUSTRY ACADEMY COOPERATION FOUNDATION OF SEJONG UNIVERSITY, priority 2016, published 2019).

Columns and labels:
Format in all cases: cell-based
[1] = test system: cultured cerebral cortex neurons of a mouse; assay: Zinc neurotoxicity inhibition, LDH assay (tertiary screening); conditions: 300 μM zinc 10 min
Description: Cerebral cortex neurons of a mouse used in the present invention were extracted from the mouse embryos brain and cultured, followed by further culturing the same using a Dulbecco's modified Eagle's medium (DMEM, Gibco, Grand Island, N.Y., US) containing 5% fetal bovine serum (FBS) and 5% horse serum (HS) under conditions of 95% humidity, 5% CO2 and 37° C. temperature. For activation and differentiation of the above cells, these cells were proliferated at a density of 2×10^4 cells in 24-well tissue culture plate. Further, prior to treatment using zinc and the compounds, the cells were incubated in MEM medium without FBS and HS.
More particularly, the cultured cerebral cortex neurons of a mouse were briefly exposed to 300 μM zinc for 10 minutes, and then treated with the selected 40 drugs, respectively, in order to observe neuro-protective effects. A degree of neuronal death of these cells was quantified by LDH assay wherein effects of individual drugs were averaged to result in a numerical value, and separate experiments were performed on each of the selected drugs 4 times, respectively (FIG. 4).

[2] = test system: cultured cerebral cortex neurons of a mouse; assay: Inhibition of a variety of neurotoxicity, LDH assay (quaternary screening); conditions: 20 μM, NMDA, FeCl2, H2O2, TPEN, staurosporine, etoposide toxicity
Description: More particularly, the cultured cerebral cortex neurons of a mouse were treated with 50 μM NMDA, 50 μM FeCl2, 100 μM H2O2, 2 μM TPEN (N,N,N′,N′-tetrakis (2-pyridylmethyl) ethylenediamine, Sigma), 500 nM staurosporine (Abcam) and 10 μM etoposide (Sigma), respectively, to induce neurotoxicity, followed by treatment using the selected 7 compounds at a concentration of 20 μM in order to observe neuro-protective effects. A degree of apoptosis of these cells was quantified by LDH assay. The neurotoxicity models used above include, for example, excitotoxicity, oxidative damage and apoptosis that are considered as a cause mechanism of stroke, in particular, the excitotoxicity model was NMDA, the oxidative damage model was iron toxicity and H2O2 toxicity models, and the apoptosis model was TPEN, staurosporine and etoposide toxicity models. The TPEN is a zinc chelator which is well known to cause typical apoptosis in neuronal cells, staurosporine is an enzyme inhibitor (kinase inhibitor) which is also well known as one of typical apoptosis inductive materials, and etoposide is a drug known to cause apoptosis due to DNA damage.

[3] = test system: cultured cerebral cortex neurons of a mouse; assay: Zinc ion permeable carrier test, ZinPyr-1
Description: ZinPyr-1 is a fluorescent dye which has a lower Kd value than that of FluoZin-3 and is used to measure a change in a zinc concentration even at a lower concentration. Whether the drug #28 of the present invention can act as an ion permeable carrier was under observation using ZinPyr-1. More particularly, the cultured cerebral cortex neurons of a mouse were treated with ZinPyr-1 then treated with the drug #28 (0.05 μM) and clioquinol (0.5 μM) in a typically used neuronal cell culture medium, so as to determine a change in zinc ion concentrations in the neurons. Also, a non-treatment group was used as a control group.
Therefore, after adding a further 0.5 μM concentration of zinc to the cell culture medium, a change in zinc concentration in the cells was under observation.

O=C1N=C(Nc2cccc(O)c2)S/C1=C\c1c[nH]c2ccccc12 [compound 28, (Z)-5-((1H-indol-3-yl)methylene)-2-((3-hydroxyphenyl)amino)thiazol-4(5H)-one]
inhibition of zinc toxicity [1]: significantly inhibit zinc toxicity
inhibitory effects on neurotoxicity [2]: inhibitory effects on any toxicity
increase of zinc in neurons, general culture conditions ([3]; #28 0.05 μM, clioquinol 0.5 μM): not clearly demonstrated
increase of zinc in neurons, zinc-supplemented medium ([3]; further 0.5 μM zinc added to the cell culture medium): significant increase in zinc
